Tested on: Male beagle dogs
Experiment: canine telemetry protocol, blood pressure reduction efficacy
Type: in vivo
Settings: change from baseline, 3 mg/kg, oral gavage; for ΔPP (mm Hg) 1-6 h / ΔPP (mm Hg) 6-12 h / ΔPP (mm Hg) 12-18 h: pulse pressure; for ΔSBP (mm Hg) 1-6 h / ΔSBP (mm Hg) 6-12 h / ΔSBP (mm Hg) 12-18 h: systolic blood pressure
Method: Compounds of the invention were evaluated for blood pressure reduction efficacy using the following canine telemetry protocol described below.
Male beagle dogs (approximately 1-3 years old) with a body weight of between 10 and 16 kg were surgically implanted with DSI radiotelemetry devices (model: TL11M2-D70-PCT). Briefly, under an inhalant anesthesia, isoflurane/oxygen mixture (1-3.5%/to effect), the body of the telemetry device was positioned and secured intra-abdominally. Subsequently, the arterial catheter of the telemetry device was passed subcutaneously to the inguinal area and introduced into the femoral artery and advanced to the level of the descending aorta. The catheter was secured with 2-0 silk ligatures. The muscle and underlying fascia was closed over the catheter using absorbable suture and the skin was closed using non-absorbable suture. The animals were allowed a minimum recovery period of 2 weeks between surgery and the evaluation of test compounds.
Compound evaluation consisted of a 3 day paradigm at a 3 mg/kg dose. On the first day, no compounds were administered during a 24 hour period of baseline data collection. Blood pressure and heart rate data were collected continuously for one minute periods at 10 minute intervals. On the days of compound administration half the animals received test article with the other half receiving the vehicle used for compound formulation. All test materials were administered by oral gavage in a volume of 1 mL/kg. Data are expressed either as raw values (mm Hg or beats per minute) or as the change from baseline (average value for about 12 hours in low activity period prior to dosing). Change is SBP (systolic blood pressure) and PP (pulse pressure) over time is shown below: […]

Row | Structure (SMILES) | ΔPP (mm Hg) 1-6 h | ΔPP (mm Hg) 6-12 h | ΔPP (mm Hg) 12-18 h | ΔSBP (mm Hg) 1-6 h | ΔSBP (mm Hg) 6-12 h | ΔSBP (mm Hg) 12-18 h
1 | CC(C)(C)N/[N+]([O-])=N/O[C@@H]1CCN(c2cccc(C#N)c2)C1 [Example 32, O^2-[(3R)-1-(3-cyanophenyl)pyrrolidin-3-yl]1-(N-tert-butylamino)diazen-1-ium-1,2-diolate] | −7 mm Hg | −12 mm Hg | −13 mm Hg | −10 mm Hg | −17 mm Hg | −17 mm Hg
2 | Cc1cccc(N2CC[C@@H](O/N=[N+](\[O-])NC(C)(C)C)C2=O)c1 [Example 36, O^2-[(3R)-1-(3-methylphenyl)-2-oxopyrrolidin-3-yl]1-(N-tert-butylamino)diazen-1-ium-1,2-diolate] | −9 mm Hg | −7 mm Hg | −4 mm Hg | −23 mm Hg | −17 mm Hg | −14 mm Hg
3 | CC(C)(C)NC(=O)N1CC[C@@H](O/N=[N+](\[O-])NC(C)(C)C)C1 [Example 9, O^2-[(3R)-1-(tert-butylcarbamoyl)pyrrolidin-3-yl]1-(N-tert-butylamino)diazen-1-ium-1,2-diolate] | −23 mm Hg | −27 mm Hg | −11 mm Hg | −24 mm Hg | −25 mm Hg | −18 mm Hg
4 | CC(C)(C)N/[N+]([O-])=N/OC1CCN(c2ccc(C#N)cn2)CC1 [Example 22, O^2-[1-(5-cyanopyridin-2-yl)piperidin-4-yl]1-(N-tert-butylamino)diazen-1-ium-1,2-diolate] | −15 mm Hg | −17 mm Hg | −16 mm Hg | −19 mm Hg | −18 mm Hg | −21 mm Hg

— patent US8361994B2, “Primary amine diazeniumdiolate heterocyclic derivatives” (Merck Sharp & Dohme Corp, priority 2011, dated 2013)
